Data reported in US11014904B2, “1,2,4-triazine-3-amine derivative, preparation method therefor, and use thereof in medicine” (Jiangsu Hengrui Medicine Co., Ltd., priority 2017, dated 2021).

Key:
Format in all cases: cell-based
[1] = target: T1, adenosine A2a receptor (A2aR) (Homo sapiens, UniProt P29274); test: Inhibition of the adenosine A2a receptor cAMP signaling pathway in CHO-K1/A2aR cells (HTRF); settings: CHO-K1/A2aR cells, cAMP, NECA 20 nM; Table 1
T1 construct: expressed in transfected cells; host or cells: CHO-K1
Source text: (§1) Determination of the inhibition activity of the compounds of the present invention on the adenosine A2a receptor (A2aR) cAMP signaling pathway, the adenosine A2b receptor (A2bR) cAMP signaling pathway, the adenosine A1 receptor (A1R) cAMP signaling pathway and the adenosine A3 receptor (A3R) cAMP signaling pathway.
(§2) The inhibition activity of the compounds of the present invention on the adenosine A2a receptor (A2aR) cAMP signaling pathway, the adenosine A2b receptor cAMP signaling pathway, the adenosine A1 receptor cAMP signaling pathway and the adenosine A3 receptor cAMP signaling pathway was determined by the following method. The experimental method is briefly described as follows:
2.1 Adenosine A2a receptor
CHO-K1/A2aR cells were cultured in DMEM/F12 medium containing 10% fetal bovine serum and 800 μg/ml bleomycin. The cells were digested with the cell separation buffer during the experiment. The cells were resuspended in the balanced salt buffer containing 20 mM HEPES and 0.1% bovine serum albumin and counted, and the cell density was adjusted to 10^6 cells/ml. In the 384-well plate, each well was added with 5 μl of cell suspension, and 2.5 μl of test compound (4× concentration) formulated with the balanced salt buffer containing 20 mM HEPES, 0.1% bovine serum albumin, 54 μM rolipram and 2.7 U/ml adenosine deaminase, and the plate was incubated at room temperature for 30 minutes. Each well was then added with 2.5 μl of […] (4× concentration) formulated with the balanced salt buffer containing 20 mM HEPES, 0.1% bovine serum albumin, 54 μM rolipram and 2.7 U/ml adenosine deaminase, and the plate was incubated at room temperature for 30 minutes. The final concentrations of the compounds were: 10000, 2000, 400, 80, 16, 3.2, 0.64, 0.128, 0.0256, 0.00512, and 0.001024 nM. The final concentration of […] was 20 nM. Intracellular cAMP concentration was detected with the cAMP dynamic 2 kit. cAMP-d2 and Anti-cAMP-Eu-Cryptate were diluted respectively with the cAMP lysis buffer at a ratio of 1:4. Each well was added with 5 μl of diluted cAMP-d2, followed by addition of 5 μl of diluted Anti-cAMP-Eu-Cryptate, and the plate was incubated at room temperature in the dark for 1 hour. The HTRF signal values were read by the PHERAstar multi-function microplate reader.

[2] = target: T2, adenosine A1 receptor (A1R) (Homo sapiens, UniProt P30542); test: Inhibition of the adenosine A1 receptor cAMP signaling pathway in CHO-K1/A1R cells (HTRF); settings: for IC50: CHO-K1/A1R cells, cAMP, forskolin 10 μM, CPA 10 nM; for IC50 ratio (A1R/A2aR): selectivity A1R over A2aR
T2 construct: expressed in transfected cells; host or cells: CHO-K1
T2 sequence (P30542 1-326): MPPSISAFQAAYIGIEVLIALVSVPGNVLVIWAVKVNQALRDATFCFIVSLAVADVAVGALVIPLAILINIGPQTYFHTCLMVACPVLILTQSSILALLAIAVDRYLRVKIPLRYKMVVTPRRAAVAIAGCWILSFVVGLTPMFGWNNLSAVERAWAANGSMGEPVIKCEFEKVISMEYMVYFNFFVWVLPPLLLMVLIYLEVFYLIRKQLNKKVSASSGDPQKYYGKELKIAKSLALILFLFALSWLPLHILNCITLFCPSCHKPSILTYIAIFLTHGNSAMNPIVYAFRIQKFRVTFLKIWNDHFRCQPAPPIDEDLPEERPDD
Source text: as §1, §2
2.3 Adenosine A1 Receptor
CHO-K1/A1R cells were cultured in DMEM/F12 medium containing 10% fetal bovine serum and 1 mg/ml G418. The cells were digested with the cell separation buffer during the experiment. The cells were then resuspended in the balanced salt buffer containing 20 mM HEPES and 0.1% bovine serum albumin and counted, and the cell density was adjusted to 5×10^5 cells/ml. In the 384-well plate, each well was added with 12.5 μl of cell suspension, and 6.25 μl of test compound (4× concentration) formulated with the balanced salt buffer containing 20 mM HEPES, 0.1% bovine serum albumin, 54 μM rolipram and 2.7 U/ml adenosine deaminase, and the plate was incubated at room temperature for 30 minutes. Each well was then added with 6.25 μl of forskolin and N6-cyclopentyladenosine (4× concentration) formulated with the balanced salt buffer containing 20 mM HEPES, 0.1% bovine serum albumin, 54 μM rolipram and 2.7 U/ml adenosine deaminase, and the plate was incubated at room temperature for 30 minutes. The final concentrations of the compounds were: 100000, 10000, 1000, 100, 10, 1, 0.1 and 0 nM. The final concentrations of forskolin was 10 μM. The final concentrations of CPA was 10 nM. Intracellular cAMP concentration was detected with the cAMP dynamic 2 kit. cAMP-d2 and Anti-cAMP-Eu-Cryptate were diluted respectively with the cAMP lysis buffer at a ratio of 1:4. Each well was added with 12.5 μl of diluted cAMP-d2, followed by addition of 12.5 μl of diluted Anti-cAMP-Eu-Cryptate, and the plate was incubated at room temperature in the dark for 1 hour. The HTRF signal values were read by the PHERAstar multi-function microplate reader.

[3] = target: T3, adenosine A3 receptor (A3R) (Homo sapiens, UniProt P0DMS8); test: Inhibition of the adenosine A3 receptor cAMP signaling pathway in CHO-K1/A3R cells (HTRF); settings: for IC50: CHO-K1/A3R cells, cAMP, forskolin 10 μM, 2Cl-IB-MECA 5 nM; for IC50 ratio (A3R/A2aR): selectivity A3R over A2aR
T3 construct: expressed in transfected cells; host or cells: CHO-K1
T3 sequence (P0DMS8 1-318): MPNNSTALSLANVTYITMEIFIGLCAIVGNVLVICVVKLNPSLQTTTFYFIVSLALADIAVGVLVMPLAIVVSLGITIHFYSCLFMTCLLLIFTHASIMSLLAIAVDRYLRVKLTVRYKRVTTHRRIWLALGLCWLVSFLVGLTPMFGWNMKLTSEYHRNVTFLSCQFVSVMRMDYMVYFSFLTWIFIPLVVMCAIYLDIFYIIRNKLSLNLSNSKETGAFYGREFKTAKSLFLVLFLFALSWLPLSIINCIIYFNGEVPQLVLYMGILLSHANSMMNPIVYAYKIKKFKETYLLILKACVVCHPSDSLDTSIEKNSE
Source text: as §1, §2
2.4 Adenosine A3 Receptor
CHO-K1/A3R cells were cultured in DMEM/F12 medium containing 10% fetal bovine serum and 10 μg/ml puromycin. The cells were digested with the cell separation buffer during the experiment. The cells were resuspended in the balanced salt buffer containing 20 mM HEPES and 0.1% bovine serum albumin and counted, and the cell density was adjusted to 5×10^5 cells/ml. In the 384-well plate, each well was added with 12.5 μl of cell suspension, and 6.25 μl of test compound (4× concentration) formulated with the balanced salt buffer containing 20 mM HEPES, 0.1% bovine serum albumin, 54 μM rolipram and 2.7 U/ml adenosine deaminase, and the plate was incubated at room temperature for 30 minutes. Each well was then added with 6.25 μl of forskolin and 2Cl-IB-MECA (4× concentration) formulated with the balanced salt buffer containing 20 mM HEPES, 0.1% bovine serum albumin, 54 μM rolipram and 2.7 U/ml adenosine deaminase, and the plate was incubated at room temperature for 30 minutes. The final concentrations of the compounds were: 100000, 10000, 1000, 100, 10, 1, 0.1 and 0 nM. The final concentrations of forskolin was 10 μM. The final concentration of 2Cl-IB-MECA was 5 nM. Intracellular cAMP concentration was detected with the cAMP dynamic 2 kit. cAMP-d2 and Anti-cAMP-Eu-Cryptate were diluted respectively with the cAMP lysis buffer at a ratio of 1:4. Each well was added with 12.5 μl of diluted cAMP-d2, followed by addition of 12.5 μl of diluted Anti-cAMP-Eu-Cryptate, and the plate was incubated at room temperature in the dark for 1 hour. The HTRF signal values were read by the PHERAstar multi-function microplate reader.

T1 sequence (P29274 whole entry): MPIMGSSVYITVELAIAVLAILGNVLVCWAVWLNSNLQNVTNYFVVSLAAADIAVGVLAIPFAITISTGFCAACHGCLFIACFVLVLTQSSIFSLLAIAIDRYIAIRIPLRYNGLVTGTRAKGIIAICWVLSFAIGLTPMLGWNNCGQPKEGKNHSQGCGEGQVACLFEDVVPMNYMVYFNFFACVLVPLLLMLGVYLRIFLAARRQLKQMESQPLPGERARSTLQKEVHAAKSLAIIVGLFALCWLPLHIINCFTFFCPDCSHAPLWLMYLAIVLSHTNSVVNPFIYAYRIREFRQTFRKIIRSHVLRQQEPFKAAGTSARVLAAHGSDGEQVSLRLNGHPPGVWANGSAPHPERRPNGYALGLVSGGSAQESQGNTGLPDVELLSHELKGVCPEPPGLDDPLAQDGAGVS

| IC50 [1] | IC50 [2] | IC50 ratio (A1R/A2aR) [2] | IC50 [3] | IC50 ratio (A3R/A2aR) [3] | Structure (SMILES) |
| --- | --- | --- | --- | --- | --- |
| 0.5 nM | 121 nM | 242 | > 10000 nM | >10^4 | Cc1cc(-c2nnc(N)nc2-c2ccccc2)cc2cccnc12 [Example 1, 6-(8-Methylquinolin-6-yl)-5-phenyl-1,2,4-triazin-3-amine] |
| 1.3 nM | – | – | – | – | Cc1cc(-c2nnc(N)nc2-c2ccco2)cc2cccnc12 [Example 6, 5-(Furan-2-yl)-6-(8-methylquinolin-6-yl)-1,2,4-triazin-3-amine] |
| 3.1 nM | – | – | – | – | Cc1cc(-c2nnc(N)nc2-c2cccs2)cc2cccnc12 [Example 7, 6-(8-Methylquinolin-6-yl)-5-(thiophen-2-yl)-1,2,4-triazin-3-amine] |
| 3.6 nM | – | – | – | – | Cc1cc(-c2nnc(N)nc2-c2ccc(F)cc2)cc2cccnc12 [Example 8, 5-(4-Fluorophenyl)-6-(8-methylquinolin-6-yl)-1,2,4-triazin-3-amine] |
| 158 nM | – | – | – | – | Nc1nnc(-c2ccc3ccccc3c2)c(-c2ccccc2)n1 [Example 13, 6-(Naphthalen-2-yl)-5-phenyl-1,2,4-triazin-3-amine, reference compound] |
| 0.9 nM | – | – | – | – | Nc1nnc(-c2ccc3ncc(F)cc3c2)c(-c2ccccc2)n1 [Example 24, 6-(3-Fluoroquinolin-6-yl)-5-phenyl-1,2,4-triazin-3-amine] |
| 1.8 nM | – | – | – | – | Nc1nnc(-c2cc(F)c3ncccc3c2)c(-c2cccc(F)c2)n1 [Example 26, 5-(3-Fluorophenyl)-6-(8-fluoroquinolin-6-yl)-1,2,4-triazin-3-amine] |
| 2.2 nM | – | – | – | – | Nc1nnc(-c2ccc3nccc(Cl)c3c2)c(-c2ccc(F)cc2)n1 [Example 27, 6-(4-Chloroquinolin-6-yl)-5-(4-fluorophenyl)-1,2,4-triazin-3-amine] |
| 3 nM | – | – | – | – | Cc1cnc2ccc(-c3nnc(N)nc3-c3ccccc3)cc2c1 [Example 28, 6-(3-Methylquinolin-6-yl)-5-phenyl-1,2,4-triazin-3-amine] |
| 3.5 nM | – | – | – | – | Nc1nnc(-c2ccc3ncncc3c2)c(-c2ccccc2)n1 [Example 29, 5-Phenyl-6-(quinazolin-6-yl)-1,2,4-triazin-3-amine] |
| 3.7 nM | – | – | – | – | Nc1nnc(-c2ccc3ncccc3c2)c(-c2ccc(F)cc2)n1 [Example 30, 5-(4-Fluorophenyl)-6-(quinolin-6-yl)-1,2,4-triazin-3-amine] |
| 1.6 nM | – | – | – | – | CCc1ccnc2c(F)cc(-c3nnc(N)nc3-c3ccccc3)cc12 [Example 47, 6-(4-Ethyl-8-fluoroquinolin-6-yl)-5-phenyl-1,2,4-triazin-3-amine] |
| 2.4 nM | 3280 nM | 1365 | > 10000 nM | >10^3 | Cc1cc(-c2nc(N)nnc2-c2ccc3nccc(C)c3c2)ccn1 [Example 48, 5-(2-Methylpyridin-4-yl)-6-(4-methylquinolin-6-yl)-1,2,4-triazin-3-amine] |
| 2.5 nM | – | – | – | – | Nc1nnc(-c2ccc3nccc(C4CC4)c3c2)c(-c2ccc(F)cc2)n1 [Example 49, 6-(4-Cyclopropylquinolin-6-yl)-5-(4-fluorophenyl)-1,2,4-triazin-3-amine] |
| 3.2 nM | 3260 nM | 1018 | > 10000 nM | >10^3 | Cc1ncnc2c(F)cc(-c3nnc(N)nc3-c3ccc(F)cc3)cc12 [Example 50, 6-(8-Fluoro-4-methylquinazolin-6-yl)-5-(4-fluorophenyl)-1,2,4-triazin-3-amine] |
| 3.5 nM | – | – | – | – | Nc1nnc(-c2ccc3nccc(C(F)F)c3c2)c(-c2ccc(F)cc2)n1 [Example 51, 6-(4-(Difluoromethyl)quinolin-6-yl)-5-(4-fluorophenyl)-1,2,4-triazin-3-amine] |
